Read-outs that look alike come from different tables or passages of the source.
Experiments:
[1] = Physical stability, formulations having one carrier; type: physicochemical
[2] = Previously determined hygroscopicity of compound 1; type: physicochemical; details: free base; at 70% relative humidity (RH)
From the text: Compound 1 has the following previously determined characteristics:
(vi) hygroscopicity (for free base): 0.09% at 70% relative humidity (RH);

[3] = Tolerability of compound 1 doses; type: in vivo; details: doses of up to 1,600 mg
From the text: Yet, compound 1 is also known to have decreased oral bioavailability in the fasted state, as compared to the fed state. Accordingly, the invention provides formulations to increase the oral bioavailability or to reduce patient-to-patient variability in pharmacokinetic behavior of compound 1, compound 2, or a salt thereof. These formulations include use of a self-emulsifying carrier system to provide stable emulsions capable of dissolving therapeutically effective amounts of compound 1, compound 2, or a salt thereof.

[4] = Apparent intestinal permeability, Caco-2 cell model; type: in vitro ADME; details: human, Caco-2, pH 7.4
From the text: (§1) Absorption of particular drugs may be limited by biological factors, such as reduced cellular permeability in the intestine. Many cellular mechanisms can influence permeability, such as reduced passive paracellular and transcellular transport or increased active export by the efflux transporter protein P-glycoprotein. Thus, the use of self-emulsifying carriers may not be beneficial for drugs having limited cellular permeability, where methods to increase the solubilization of a drug may not increase its permeability in the gastrointestinal tract. Experiments were conducted to assess the apparent intestinal permeability of compound 1 using a Caco-2 cell model.
(§2) Briefly, Caco-2 cells were used as an in vitro model for predicting absorption through the intestinal epithelium. Confluent monolayers of Caco-2 cells were grown on collagen-coated, microporous, polycarbonate membranes (12-well Costar Transwell® plates) that are placed between two chambers. The apical side of the monolayer was exposed to the buffer solution in a first chamber, but the basolateral side of the monolayer adhered to microporous membranes fluidically connected to a second chamber. The dosing solution was added to the first chamber for measurements in the apical-to-basolateral direction (A-to-B) and to the second chamber for measurements in the basolateral-to-apical direction (B-to-A). […] The permeability assay buffer was Hanks Balanced Salt Solution containing 10 mM HEPES and 15 mM glucose at a pH of 7.4. The buffer in the receiver chamber also contained 1% bovine serum albumin. The dosing solution concentration was 1 μM of compound 1 in the assay buffer. All donor chambers were first pre-incubated for five minutes with dosing solution to attempt to saturate any non-specific binding sites on the device with test compound. After five minutes, the solution was removed and replaced with fresh dosing solution, and time was recorded as 0. Cell monolayers were dosed on the apical side/first chamber (for A-to-B measurements) or basolateral side/second chamber (for B-to-A measurements) and incubated at 37° C. with 5% CO2 in a humidified incubator. At 30 and 60 minutes, aliquots were taken from the receiver chambers and replaced with fresh assay buffer. Samples were taken from the donor chamber at 0 and 60 minutes. Each experiment was performed in triplicate.
(§3) The apparent permeability (Papp), percent recovery, and efflux ratio were calculated as follows: […]
(§4) is the slope of the cumulative concentration in the receiver chamber as a function of time; V, [cm^3] is the volume of the receiver chamber; Vd [cm^3] is the volume of the donor chamber; A [cm^2] is the area of the cell monolayer, which is estimated to be about 1.13 cm^2 for the 12-well Costar Transwell® plates; C0[μM] is the measured concentration in the donor chamber at t=0 hours; CN [μM] is the nominal concentration of the dosing solution; Cr,final [μM] is the cumulative concentration in the receiver chamber at the end of the incubation period; and Cd,final [μM] is the cumulative concentration in the donor chamber at the end of the incubation period.
(§5) Thus, absorption of compound 1 in humans is not expected to be permeability limited.

Caco-2 cells = assay: as above; type: in vitro ADME; details: for Papp R3: replicate 3
From the text: as §1, §2, §3, §4, §5

[5] = Previously determined solubility of compound 1; type: physicochemical
From the text: Compound 1 has the following previously determined characteristics: […]

[6] = Fed-fasted pharmacokinetics of compound 1 HCl salt; type: in vivo; details: for half-life: human, in vivo, po, read-out: t1/2 for absorption
From the text: The fed-fasted pharmacokinetic data were collected using a “normal fat” meal consisting of toast with 1 pat of butter, a banana, 2% milk, apple juice, and Honey Nut Cheerios®, where the meal has about 501 calories with 99 calories from fat, 346 calories from carbohydrates, and 56 calories from protein; and using a “high fat” meal consisting of 2 eggs fried in butter, 2 strips of bacon, 2 slices of toast with butter, 4 ounces of hash brown potatoes and 8 ounces of whole milk, where the meal has about 1,000 calories with 500-600 calories from fat, 250 calories from carbohydrates, and 150 calories, from protein.

Molecule	Physical Stability, one month [1] [month]	Physical Stability, one week [1] [week]	Physical Stability, one month (cells printed in weeks) [1] [week]	hygroscopicity [2] [%]	adverse effects [3]	Papp A→B at 60 min, 1 μM ([4]; A-to-B, average) [×10⁻⁶ cm/s]	efflux ratio at 60 min, 1 μM ([4]; read-out: Efflux Ratio (Papp (B-to-A)/Papp (A-to-B)))	Papp R3 (Caco-2 cells; A-to-B)	Papp R3 (Caco-2 cells; B-to-A)	permeability classification (Caco-2 cells; based on Papp(A-to-B))	efflux of compound 1 (Caco-2 cells; based on efflux ratio)	solubility in propylene glycol, ethanol, and tetrahydrofuran [5]	solubility in water [5]	Tmax ([6]; fed state with high fat meal) [h]	Tmax ([6]; fed state with normal fat meal) [h]	half-life ([6]; fasted state) [min]	half-life ([6]; fed state with high fat meal) [min]	half-life ([6]; fed state with normal fat meal) [min]
PEG 8 caprylic/capric glycerides	>1	>1																
Caprylic/capric glycerides	>1	>1	>1															
O=C(CC(c1ccccc1)c1ccccc1)N1CCN(C(c2ccccc2)c2ccccc2)CC1 [Compound 1, 1-(4-benzhydrylpiperazin-1-yl)-3,3-diphenylpropan-1-one]				0.09	no adverse effects	> 1	< 3	6.78 10^−6 cm/s	4.45 10^−6 cm/s	high permeability coefficient	not considered significant	soluble	slightly soluble	4 to 5	2 to 5	3 to 10.2	48 to 168	30 to 96

Reference: US20130184290A1, “SELF-EMULSIFYING FORMULATIONS AND METHODS OF USE THEREOF” (CAPSUGEL, Inc., priority 2011, published 2013)
